Results reported in patent US20250144247A1, “FORMULATIONS TO ENHANCE THE DELIVERY OF GENE THERAPY VECTORS” (priority 2023, published 2025).
Read-outs that look alike come from different tables or passages of the source.

Key:
[1] = tested on: human airway epithelial cells (HAE); format: cell-based
[2] = tested on: human airway epithelial cells (HAE); experiment: Scanning electron microscopy of HAE surface; settings: NaCl 3.6% for 2 hours vs no NaCl control
[3] = tested on: cultured cells on plastic; experiment: Gene transfer of cultured cells on plastic with hypertonic saline; format: cell-based
mouse airways = experiment: Adenoviral transduction of mouse airways (Ad-luciferase, IVIS); format: in vivo, Balb/c mice; settings: Ad-luciferase intratracheal, 7% NaCl vs 0.9% NaCl, five days
Method: 6-8-week-old Balb/c mice were sedated with ketamine/xylazine (87.5+2.5 mg/kg). Ad-CMV-firefly luciferase was delivered intratracheally with 1×10^9 TU formulated with NaCl (0.9% or 7% final) in a 50 ul volume. 5 days later mice were given intraperitoneal D-luciferin (50227, Millipore Sigma, St. Louis, MO) imaged for luminescence expression using the Xenogen IVIS-200.

[4] = Osmolarity and pH of the solutions; format: physicochemical
[5] = tested on: human airway epithelial cells (HAE); format: cell-based; settings: for Ad gene transfer: imaged 5 days
[6] = tested on: newborn pig tracheal explants; experiment: Pig tracheal explant transduction ex vivo; settings: NaCl 5%, apical 2 hours
Method: 0.25 cm^2 tracheal explants from newborn pigs were cultured on Surgifoam (1972, Ethicon, Raritan, NJ) for 3-5 days prior to transduction. Ad5-mcherry (1×10^9 TU), AAVH22-GFP (2×10^10 vg), and GP64 HIV-GFP (1.75×10^7 TU) were applied with or without NaCl (5%) to the apical surface of the trachea by inverting the trachea onto a tissue culture dish containing the viral solution for 2 hours then returned to an upright position on Surgifoam. 5 days post-transduction, tracheal explants were mounted on a microscope slide and imaged for fluorescent expression using confocal microscopy. Expression was quantified using Image J (FIJI) by measuring fluorescence intensity per high power field.
Using freshly excised newborn pig tracheal explants maintained on Surgifoam, Ad-GFP or AAVH22-GFP (a pig-tropic AA V capsid)±NaCl (5%) was applied to the apical surface by inverting the tissue in a culture dish for 2 hours. One week later, tissues were fixed and imaged by confocal microscopy. […] Fluorescence was quantified by transduction area per high power field.

[7] = tested on: CFTR anion transport in CF HAE; experiment: Ussing chamber short circuit current and conductance of CF HAE; format: cell-based, human
measles virus (MeV) = experiment: Measles virus (MeV) infection of HAE; format: cell-based, human; settings: wild-type MeV, NaCl (4%)
Method: […] After infection, virus inoculums removed. […] After infection, basolateral-infected cultures were returned upright. All MeV infections took place for 4 hours in 37° C. at an MOI of 1 with a total inoculum of 50 μL.

[8] = tested on: human airway epithelial cells (HAE); experiment: Transepithelial electrical resistance (TEER) of HAE after apical reagent; format: cell-based; settings: apical 5 minutes; LPC 0.1%, EGTA 250 mM, doxorubicin 5 μM, NaCl 3.6%, Infasurf 35 mg/ml
Method: The University of Iowa In Vitro Models and Cell Culture Core cultured and maintained human airway epithelial cells (HAE) as previously described (33). Briefly, following enzymatic disassociation of trachea and bronchus epithelia, the cells were seeded onto collagen-coated, polycarbonate transwell inserts (0.4 μm pore size; surface area=0.33 cm^2; Corning Costar, Cambridge, MA). HAE were submerged in Ultroser G (USG) medium for 24 hours (37° C. and 5% CO2) at which point the apical media is removed to encourage polarization and differentiation at an air-liquid interface. Transepithelial electrical resistance was measured using an Ohmmeter […]
Disrupting the epithelial tight junctions allows Ad5-based viral vectors access to their basolaterally localized coxsackie and adenovirus receptor (CXADR) (12). Unless otherwise specified, these studies use the Ad5 serotype. […] First, reagents were applied to the apical surface of HAE for 5 minutes and then TEER was measured using an ohmmeter. […] In separate cultures, Ad-GFP (MOI=250) in 50 μl of DMEM combined 1:1 with the test reagents was applied to the apical surface for 2 hours. 5 days post-treatment, cells were imaged by fluorescence microscopy.

[9] = tested on: human airway epithelial cells (HAE); experiment: LDH release / integrity of HAE; format: cell-based
Method: GFP images were acquired using a Keyence All-in-one Fluorescence Microscope BZ-X series (Osaka, Japan). 0.33 cm^2 Transwells were imaged at 2× magnification. GFP expression was quantified by flow cytometry as previously reported (36). Briefly, cells were stained with a fixable LIVE/DEAD stain (Thermo Fisher Scientific, Waltham, MA, USA), lifted in Accutase at 37° C. for 30 minutes, and run through an Attune NxT Flow Cytometer (Thermo Fisher Scientific, Waltham, MA, USA). Cells were treated with the Foxp3/Transcription Factor Staining Buffer Set (Thermo Fisher Scientific, Waltham, MA, USA) according to manufacturer's recommendations and stained for 1 hour at 37° C. with the following antibodies: NGFR (345110; 1:600, BioLegend, San Diego, CA, USA), α-tubulin (NB100-69AF405, 1:300, Novus, Centennial, CO, USA) and CD66c (12-0667-42, 1:600, Invitrogen, Waltham, MA). Expression was gated on live cells. Immunofluorescence staining of pig tissue sections was performed using acetylated α-tubulin (D20G3, 1:200, Cell Signaling Technology, Danvers, MA) or cytokeratin 5 (CK5) (Polyl9055, 1:500, San Diego, CA). Primary antibodies were detected using a goat anti-rabbit Alexa 546 secondary anti-body (A-11035, 1:600, Thermo Fisher Scientific, Waltham, MA).
LDH release was quantified according to the manufacturer's recommendations (LDH-Glo Cytotoxicity Assay, Promega, Madison, WI). Briefly, basolateral media from each condition was collected in a 96 well plate. The LDH detection reagents were mixed in a 1:1 ratio and applied to each well and incubated for 30 minutes. Luminescence was recorded using a SpectraMax i3x plate reader.

[10] = tested on: human airway epithelial cells (HAE); experiment: AAV2.5T-GFP transduction of HAE; format: cell-based; settings: NaCl 4.5%, MOI=100,000 vg/cell, 2 hours, doxorubicin 1 μM pre-treatment, 2 weeks

## [Cl-].[Na+] [NaCl, sodium chloride]
[1]; MOI=50, NaCl formulation
  transduction of primary human CF cultures, GP64 HIV-GFP: remarkable levels of transduction
[1]; non-CF HAE, 3.5, 4 or 4.5% NaCl, MOI=50
  GFP expression, GP64 HIV vector: dose-dependent increase in GFP expression
[2]
  cell surface integrity and ciliation by SEM: no overt physical differences
[3]
  effect on cultured cells on plastic: lifting of the cells
Mouse airways
  luciferase expression (bioluminescence): significantly increased expression in the nose and lung
[4]; 0.9% solution
  Osmolarity: 310 mOsmol/l
[4]; 1% solution
  Osmolarity: 342 mOsmol/l
[4]; 2% solution
  Osmolarity: 684 mOsmol/l
[4]; 3% solution
  Osmolarity: 1027 mOsmol/l
[4]; 3.6% NaCl in deionized water
  unadjusted pH: ~6
[4]; 3.6% solution
  Osmolarity: 1230 mOsmol/l
[4]; 4% solution
  Osmolarity: 1369 mOsmol/l
[4]; 5% solution
  Osmolarity: 1711 mOsmol/l
[4]; 6% solution
  Osmolarity: 2053 mOsmol/l
[4]; 7% solution
  Osmolarity: 2693 mOsmol/l
[5]; 0.9% NaCl (PBS), Ad-GFP MOI=250, apical 2 hours
  Ad gene transfer: did not enhance Ad gene transfer
[5]; 1-7% NaCl, Ad-GFP MOI=250
  transduction of basal, secretory and ciliated cells: all transduced in a dose dependent manner
[5]; 3.6% NaCl vs 3.6% NaGluconate, 3.6% KCl, 0.9% NaCl, 0.9% NaCl + mannitol, 2 h, 5 days
  Ad-GFP transduction efficiency, comparison of osmolytes: greatest increase in transduction efficiency
[5]; Ad-GFP MOI=250 combined 1:1 with reagent, apical 2 hours, LPC 0.1%, EGTA 250 mM, doxorubicin 5 μM, NaCl 3.6%, Infasurf
  Ad gene transfer: conferred remarkable transduction
[5]; Ad-GFP with NaCl 3.6%
  co-treatment time giving maximal expression: 2 h
[5]; NaCl 3.6% adjusted to pH 5, 6, 7, 7.4 and 8, Ad-GFP
  % GFP+ cells across pH range: no significant differences
[5]; NaCl 3.6% or Ad-GFP for 5, 15, 30, 60 or 120 min
  % GFP+ cells versus length of exposure: increased incrementally with increasing temporal exposure
[5]; dose response 1-7% NaCl final, Ad-GFP MOI=250
  Ad transduction efficiency (% GFP+ cells): dose dependent increase in transduction efficiency
[5]; ≤3% NaCl
  benefit on Ad transduction: little benefit on transduction
[6]
  transduction with Ad and AAVH22 (fluorescence per high power field): markedly enhanced
[7]; CF HAE, Ad-CFTR (MOI=250) and NaCl 3.6%, apical 2 hours, 5 days
  Cl− secretion (short circuit current and conductance, F&I and GlyH): wild-type levels of Cl^− secretion
[7]; CF airway cultures, AAV2.5T-CFTR with NaCl 4.5%, 2 weeks
  anion channel activity responses to F&I and GlyH: increased anion channel activity responses
[7]; primary CF HAE, GP64 HIV-CFTR (MOI=50) in the presence of NaCl 4.5%
  CFTR-dependent anion transport: restored the CFTR-dependent anion transport
Measles virus (MeV)
  MeV infection following apical application: occurred only in the presence of NaCl
[8]
  transepithelial electrical resistance (TEER): decreased TEER
[9]; 5% NaCl formulation
  effects on HAE integrity in vitro: negative effects on HAE integrity
[9]; highest concentrations of NaCl (5-7%)
  LDH release: increased LDH release
[9]; in vitro HAE
  NaCl doses with ultimate toxicity: > 6%
[10]
  GFP expression, AAV-GFP (AAV2.5T): significantly higher GFP expression
